Source: patent US20040259082A1

How the values were obtained:
[1] = Photodegradation and single molecule detection calculation; settings: 60 photons, 0.45% detection efficiency, 13,333 excitations
T7 polymerase exo- = target: T1, T7 polymerase exo- (Escherichia phage T7, UniProt P00581, D5A/E7A); experiment: Steady-state kinetics, Km determination for dTTP; type: biochemical; settings: Lineweaver-Burk plot; 5 sec at 20° C.
T1 construct: made in house; host or cells: E. coli TOP 10

[2] = Capillary electrophoresis of unlabeled nucleotides with Mg++; type: physicochemical
Experimental: FIG. 14 illustrates the effect of Mg^++ on electrophoretic mobility of unlabeled nucleotides.
Electrophoresis Results. A γ-dNTP (FIG. 13A) with the charge configuration N(0) F(+2) was synthesized and its electrophoretic mobility examined in an agarose gel as a function of Mg^++ concentration (FIG. 13B). As expected (FIG. 12B), its mobility changed from negative to positive with increasing Mg^++, passing through zero at about 3 mM Mg^++. A direct comparison with the calculation (FIG. 12B) is not possible because, while the gels contained the indicated Mg^++ concentrations, the samples (20 μL) loaded in each lane contained 10 mM Mg^++. The importance of attaching a (+2) charge to the γ-label (FIG. 13A) with respect to obtaining a bipolar switch mode (neg to pos) is illustrated by a capillary electrophoresis experiment with unlabeled dTDP and dTTP (FIG. 14). […] It is clear that additional positive charge can be added to the these nucleotides if one desires a negative to positive charge switch. This is what was done with the γ-dNTP of FIG. 13.

HIV-1 RT = HIV-1 RT (Human immunodeficiency virus type 1 group M subtype B, UniProt P03366); settings: 50 μM dATP, dCTP, dGTP; 37° C. for 30 min
Experimental: FIG. 6 illustrates the utilization of different γ-dNTPs by T7 Sequenase 2.0 and HIV polymerases. Samples contain 50 μM dATP, dCTP, dGTP and either (a) dUTP; (b) γ-dUTP-BodipyTR; (c) γ-dUTP-Fluorescein; or a control (d) omitting dUTP and its analogs. Incubation was at 37° C. for 30 min.
18 commercially-available polymerases were screened for the utilization of γ-dUTP-BodipyTR.

HIV-RT = HIV-RT (Human immunodeficiency virus type 1 group M subtype B, UniProt P03366); experiment: Charged nucleobase (aminoallyl-dUTP) as polymerase substrate; type: biochemical; settings: dATP, dCTP, dGTP plus AA-dUTP
Experimental: (§1) Arrows indicate the extension products.
(§2) Charged Nucleobase as a Polymerase Substrate. […] Aminoallyl-dUTP was tested with 4 different polymerases.

Klenow = Klenow (Escherichia coli, UniProt P00582); experiment: as above; type: biochemical; settings: dATP, dCTP, dGTP plus AA-dUTP
Experimental: as §1, §2

Taq = Taq (Thermus aquaticus, UniProt P19821); experiment: as above; type: biochemical; settings: dATP, dCTP, dGTP plus AA-dUTP
Chain of Taq (P19821 whole entry): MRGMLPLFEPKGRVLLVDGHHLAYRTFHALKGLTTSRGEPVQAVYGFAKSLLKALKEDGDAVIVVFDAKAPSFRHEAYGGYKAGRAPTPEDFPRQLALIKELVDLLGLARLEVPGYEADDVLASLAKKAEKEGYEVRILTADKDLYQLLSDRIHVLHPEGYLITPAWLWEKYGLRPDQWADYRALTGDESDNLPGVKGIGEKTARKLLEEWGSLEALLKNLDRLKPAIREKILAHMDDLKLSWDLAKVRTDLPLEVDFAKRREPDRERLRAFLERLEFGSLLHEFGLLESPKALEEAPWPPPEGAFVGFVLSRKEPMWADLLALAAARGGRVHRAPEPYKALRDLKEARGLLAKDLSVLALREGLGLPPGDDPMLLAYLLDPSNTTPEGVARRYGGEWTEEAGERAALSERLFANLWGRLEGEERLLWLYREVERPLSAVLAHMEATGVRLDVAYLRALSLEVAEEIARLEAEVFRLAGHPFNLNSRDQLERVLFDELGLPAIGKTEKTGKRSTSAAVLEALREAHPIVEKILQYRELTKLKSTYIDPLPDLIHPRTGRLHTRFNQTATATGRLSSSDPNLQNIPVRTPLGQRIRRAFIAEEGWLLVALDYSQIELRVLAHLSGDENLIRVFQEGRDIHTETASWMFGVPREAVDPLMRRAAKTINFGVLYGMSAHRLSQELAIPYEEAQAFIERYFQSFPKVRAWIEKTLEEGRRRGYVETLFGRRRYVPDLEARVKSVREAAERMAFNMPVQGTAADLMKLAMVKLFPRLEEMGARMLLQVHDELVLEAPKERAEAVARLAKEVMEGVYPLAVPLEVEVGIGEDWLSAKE
Experimental: as §1, §2

T7 Sequenase 2.0 = T7 Sequenase 2.0 (Escherichia phage T7, UniProt P00581, DEL118-145); settings: dATP, dCTP, dGTP plus AA-dUTP
Source text: Samples contain dATP, dCTP, dGTP and either dUTP (first lane of each enzyme) or AA-dUTP (second lane each enzyme). Arrows indicate the extension products.

CN(C)c1ccc2c(-c3ccccc3C(=O)[O-])c3ccc(N(C)C)cc3[o+]c2c1 [TMR, tetramethylrhodamine]
molecules escaping detection due to photodegradation [1]: 0.44%

Cc1cn([C@H]2C[C@H](O)[C@@H](COP(=O)(O)OP(=O)(O)OP(=O)(O)O)O2)c(=O)[nH]c1=O [dTTP]
Km (T7 polymerase exo-): 13 µM
charge in presence of Mg++ [2]: remained in negative territory

O=c1ccn([C@H]2C[C@H](O)[C@@H](COP(=O)(O)OP(=O)(O)OP(=O)(O)O)O2)c(=O)[nH]1 [dUTP]
incorporation of γ-dUTP analogs / dUTP (FIG. 6) (HIV-1 RT): synthesized full-length product

Cc1cn([C@H]2C[C@H](O)[C@@H](COP(=O)(O)OP(=O)(O)O)O2)c(=O)[nH]c1=O [dTDP]
charge in presence of Mg++ [2]: remained in negative territory

NC/C=C/c1cn([C@H]2C[C@H](O)[C@@H](COP(=O)(O)OP(=O)(O)OP(=O)(O)O)O2)c(=O)[nH]c1=O [Aminoallyl-dUTP]
extension product with AA-dUTP (HIV-RT): produced full-length product
extension product with AA-dUTP (Klenow): stopped at the dUTP incorporation sites
extension product with AA-dUTP (Taq): stopped at the dUTP incorporation sites
extension product with AA-dUTP (T7 Sequenase 2.0): produced full-length product
